Source: patent publication US8168400B2, “Methods and kits for detection of thromboxane A2 metabolites” (Corgenix Medical Corporation, priority 2005, dated 2012)
Entries after “also recorded” stand apart in the source; their conditions may differ.

How the values were obtained:
[1] = system: monoclonal antibodies of the present invention (anti-11 dhTxB2 / 11 dh2,3dTxB2 mAb); experiment: Monoclonal antibody specificity: percent cross-reactivity (enzyme-based competition assay); assay type: binding, mouse; details: for % Reactivity (cross reactivity): relative to 11 dh TxB2 = 100%
Procedure: The present invention provides a urinary 11dhTxB2 Competitive ELISA Assay. An illustrative standard curve was prepared (see FIG. 6) by spiking known amounts of 11dhTxB2 into low level urine diluted 1:5 in Tris assay buffer (0.1M Tris, 0.1% BSA) or into assay buffer alone. 100 μl of standards or actual samples (having taken known amounts of aspirin and diluted 1:5 in Tris assay buffer) was added to wells coated with goat anti-mouse antibody, followed by the addition of 50 μl of 11 dhTxB2-AP (alkaline phosphatase) tracer and 50 μl of 11 dhTxB2 mAb. The reactions were then allowed to incubate for a predetermined amount of time, typically with shaking at room temperature. In preferred embodiments the incubation is about two hours in length. Each well is then washed with a wash buffer and approximately 200 μl of substrate added (p-nitrophenyl-phosphate, pNPP). The reactions are then incubated again for approximately thirty minutes. A stop solution is added to each well, and the plate read for OD at 405 nm.
Antibody clones of the invention were tested to determine cross-reactivity against various Thromboxane A2 metabolites and other like compounds. Table 2 provides percent cross reactivity of antibodies of the present invention against these various compounds: […]

[2] = low dose aspirin; patients with arterial vascular disease; cited from earlier work
platelet COX-1 = molecular target: T1, platelet COX-1 (Homo sapiens, UniProt P23219); details: low dose aspirin; cited from earlier work
T1 construct: host or cells: platelets (in vivo, patients on low dose aspirin)
T1 sequence (P23219 24-599): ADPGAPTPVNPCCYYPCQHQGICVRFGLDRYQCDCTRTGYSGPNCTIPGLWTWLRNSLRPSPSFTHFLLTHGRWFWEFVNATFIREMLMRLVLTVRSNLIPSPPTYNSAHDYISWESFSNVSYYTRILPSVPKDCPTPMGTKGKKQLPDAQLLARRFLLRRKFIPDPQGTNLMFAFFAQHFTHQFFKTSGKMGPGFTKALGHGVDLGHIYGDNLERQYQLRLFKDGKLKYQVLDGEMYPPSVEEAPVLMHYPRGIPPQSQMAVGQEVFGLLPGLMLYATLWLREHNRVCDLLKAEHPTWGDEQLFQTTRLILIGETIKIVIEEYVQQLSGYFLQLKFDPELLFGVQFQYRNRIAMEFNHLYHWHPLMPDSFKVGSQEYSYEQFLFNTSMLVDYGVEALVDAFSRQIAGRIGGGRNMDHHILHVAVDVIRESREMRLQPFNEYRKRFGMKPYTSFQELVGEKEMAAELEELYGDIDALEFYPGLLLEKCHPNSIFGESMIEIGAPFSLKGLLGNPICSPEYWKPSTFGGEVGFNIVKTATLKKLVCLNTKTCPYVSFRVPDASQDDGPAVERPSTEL

[3] = system: urinary 11dhTxB2 (TxA2 metabolites); experiment: Urinary 11dhTxB2 competitive ELISA in subjects on aspirin; assay type: in vivo, human; details: for urinary 11dhTxB2 per mg creatinine, average patient value: healthy no-aspirin average 1119 pg/mg
Procedure: The present invention provides a urinary 11dhTxB2 Competitive ELISA Assay. An illustrative standard curve was prepared (see FIG. 6) by spiking known amounts of 11dhTxB2 into low level urine diluted 1:5 in Tris assay buffer (0.1M Tris, 0.1% BSA) or into assay buffer alone. 100 μl of standards or actual samples (having taken known amounts of aspirin and diluted 1:5 in Tris assay buffer) was added to wells coated with goat anti-mouse antibody, followed by the addition of 50 μl of 11 dhTxB2-AP (alkaline phosphatase) tracer and 50 μl of 11 dhTxB2 mAb. The reactions were then allowed to incubate for a predetermined amount of time, typically with shaking at room temperature. In preferred embodiments the incubation is about two hours in length. Each well is then washed with a wash buffer and approximately 200 μl of substrate added (p-nitrophenyl-phosphate, pNPP). The reactions are then incubated again for approximately thirty minutes. A stop solution is added to each well, and the plate read for OD at 405 nm. Results from the assay provide for the amount of 11dhTxB2 and 11 dh2,3dTxB2 present in the sample (note that results are compared to the standard curve). The amount of the two metabolites present in the sample is indirectly proportional to the optical density read at 405 nm. For clinical samples, creatinine values are also obtained, and data from assays presented as pg metabolite/mg creatinine. Initially, 171 urine samples were taken from subjects either off aspirin or on 81 or 325 mg aspirin/day. TxA2 metabolite amounts were determined for each sample using the methods and kits of the present invention. Values were normalized for urinary dilution by dividing TxA2 metabolite amounts by creatinine concentrations. 354 urine samples from subjects either on or off aspirin therapy were run using the methods and kits of the present invention. Values were calculated and normalized for urinary dilution by dividing by creatinine concentration, and the frequency of each concentration was calculated and shown in a frequency plot, FIG. 5. Subjects on aspirin are plotted with solid bars and subjects not on aspirin are plotted using hatched bars. Positive samples are below 1500 pg/mg creatinine cutoff, whereas negative samples are those that are above the 1500 pg/mg creatinine cutoff. As shown in FIGS. 4-5, clinical data can be obtained using the above-described methods. […] The assay detection range was suitable for measurement of 11dhTxB2 in a population (62-3122 pg 11dhTxB2/mg creatinine—see FIG. 7). […] All three levels of aspirin doses are statistically significant when compared to the healthy, no aspirin controls.

[4] = aspirin ingestion present, 354 urine samples in total

Row | SMILES | reactivity of the antibodies with the compound (in words) [1] | % Reactivity (cross reactivity) [1] [%] | also measured
1 | CC(=O)Oc1ccccc1C(=O)O [aspirin, acetyl salicylic acid] | – | – | reduction of cardiovascular events [2]: ≤ 25%; block of platelet COX-1 activity (platelet COX-1): more than 95%; urinary 11dhTxB2 per mg creatinine, average patient value ([3]; aspirin 81 mg/day): 418 pg/mg; urinary 11dhTxB2 per mg creatinine, average patient value ([3]; aspirin 162 mg/day): 471 pg/mg; urinary 11dhTxB2 per mg creatinine, average patient value ([3]; aspirin 325 mg/day): 377 pg/mg; number of urine samples Negative (>1500 pg/creatinine) [3, 4]: 16; number of urine samples Positive (<1500 pg/creatinine) [3, 4]: 251
2 | CCCCCC(O)C=CC1OC(=O)CC(O)C1CC=CCCCC(=O)O (stereo not shown) [11 dh TxB2, 11-dehydro Thromboxane B2] | react; also recorded: high reactivity | 100 | –
3 | O=C(O)CCCCC(=O)CCC1C(O)CC(=O)C1CCC(=O)O (stereo not shown) [2,3,4,5-tetranor-20-Carboxy 13,14-dihydro-15-keto PGE2] | unreactive | <0.01 | –
4 | CCCCCC(O)C=CC1OC(=O)CC(O)C1CC=CCC(=O)O (stereo not shown) [11-dehydro-2,3 dinor thromboxane B2] | react; also recorded: high reactivity | 166 | –
5 | CCCCC[C@H](O)/C=C/[C@H]1OC(O)C[C@H](O)[C@@H]1C/C=C\CC(=O)O (stereo partly shown) [2,3 dinor TxB2] | unreactive | 1.93 | –

Further lines, with some results ahead:

Row | reactivity of the antibodies with the compound (in words) [1] | % Reactivity (cross reactivity) [1] [%] | SMILES | also measured
6 | unreactive | <0.01 | CCCCC[C@H](O)/C=C/[C@H]1[C@H](O)CC(=O)[C@@H]1C/C=C\CCCC(=O)O [PGE2] | –
7 | unreactive | 0.2 | CCCCC[C@H](O)/C=C/[C@H]1C(=O)C[C@H](O)[C@@H]1C/C=C\CCCC(=O)O [PGD2] | –
8 | unreactive | <0.01 | O=C(O)CCCCC(=O)CCC1C(O)CC(O)C1CCC(=O)O (stereo not drawn) [2,3,4,5-tetranor-20-Carboxy 13,14-dihydro-15-keto PGF2α] | –
9 | unreactive | 0.05 | CCCCC[C@H](O)/C=C/[C@H]1OC(O)C[C@H](O)[C@@H]1C/C=C\CCCC(=O)O (stereo partly shown) [TxB2, thromboxane B2] | –
10 | unreactive | <0.01 | CCCCC[C@H](O)/C=C/[C@@H]1[C@@H](CC(=O)CCCCC(=O)O)[C@@H](O)C[C@H]1O [6-keto PGF1a] | –
